In BindingDB's records for doi:10.1074/jbc.M111.290619 (Washington University, 2011):
Several values for one entry are separate records, joined by “and”; a condition that tells them apart may be missing. Identical values can stand only once.

Assays:
[1] = biological target: T1, Phosphoethanolamine N-methyltransferase 1 (Caenorhabditis elegans, UniProt Q86NB3); test: Calorimetric (ITC) Assay; settings: pH 7.5
T1 sequence (Q86NB3 whole entry): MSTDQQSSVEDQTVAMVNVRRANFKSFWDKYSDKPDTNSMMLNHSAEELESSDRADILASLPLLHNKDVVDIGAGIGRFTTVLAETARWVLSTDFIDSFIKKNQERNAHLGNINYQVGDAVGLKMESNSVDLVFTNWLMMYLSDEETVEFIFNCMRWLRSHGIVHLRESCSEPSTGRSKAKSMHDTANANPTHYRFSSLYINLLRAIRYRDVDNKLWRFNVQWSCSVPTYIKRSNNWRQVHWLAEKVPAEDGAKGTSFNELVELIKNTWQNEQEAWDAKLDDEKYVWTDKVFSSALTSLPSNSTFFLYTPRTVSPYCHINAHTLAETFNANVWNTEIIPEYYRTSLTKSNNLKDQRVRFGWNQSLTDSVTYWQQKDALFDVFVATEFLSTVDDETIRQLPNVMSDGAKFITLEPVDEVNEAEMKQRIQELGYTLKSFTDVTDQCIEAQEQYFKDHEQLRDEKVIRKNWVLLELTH
Procedure: (§1) For standard ITC analysis of ligand binding, proteins were dialyzed overnight in 25 mm Hepes (pH 7.5), 100 mm NaCl, 5 mm -mercaptoethanol, and 5% glycerol at 4 °C. Ligands (i.e. AdoMet, AdoCys, pEA, and pCho) were prepared in the same buffer. AdoMet and AdoCys concentrations were determined spectrophotometrically (A260 nm; = 15,400 m 1 cm 1) (19). ITC experiments were performed using a VP-ITC calorimeter (Microcal, Inc.). Injections (10 ul) of ligand were added to a sample solution containing protein using a computer-controlled 250-ul microsyringe at intervals of 5 6 min.

[2] = biological target: T1, Phosphoethanolamine N-methyltransferase 1; test: Radiochemical Assay; settings: pH 8; 25 °C
Source text: (§2) A radiochemical assay was used to measure enzymatic activity.

[3] = biological target: T2, Phosphoethanolamine N-methyltransferase 2 (Caenorhabditis elegans, UniProt Q22993); test: Radiochemical Assay; settings: pH 8; 25 °C
Source text: as §2

[4] = biological target: T2, Phosphoethanolamine N-methyltransferase 2; test: Calorimetric (ITC) Assay; settings: pH 7.5
Procedure: as §1

T2 sequence (Q22993 whole entry): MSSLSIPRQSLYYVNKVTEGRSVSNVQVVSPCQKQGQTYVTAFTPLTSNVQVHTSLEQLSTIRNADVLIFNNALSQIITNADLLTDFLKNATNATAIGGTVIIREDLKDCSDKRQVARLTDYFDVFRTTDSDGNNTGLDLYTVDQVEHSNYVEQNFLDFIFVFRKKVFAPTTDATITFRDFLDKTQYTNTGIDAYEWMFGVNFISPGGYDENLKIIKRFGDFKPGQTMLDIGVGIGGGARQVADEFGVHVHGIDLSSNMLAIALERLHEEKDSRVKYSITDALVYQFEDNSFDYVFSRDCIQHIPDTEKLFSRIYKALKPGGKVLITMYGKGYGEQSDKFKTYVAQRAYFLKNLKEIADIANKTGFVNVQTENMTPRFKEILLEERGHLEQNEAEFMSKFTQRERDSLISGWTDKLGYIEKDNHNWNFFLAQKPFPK

Compound | Kd ([1]; 4 °C) | Kd ([1]; 5 °C) | Kd ([1]; 10 °C) | Kd ([1]; 15 °C) | Kd ([1]; 20 °C) | Kd ([1]; 25 °C) | IC50 [2] | IC50 [3] | further results
C[S+](CC[C@H](N)C(=O)[O-])C[C@H]1O[C@@H](n2cnc3c(N)ncnc32)[C@H](O)[C@@H]1O (stereo partly drawn) [(2S)-2-amino-4-({[(2S,3S,4R,5R)-5-(6-amino-9H-purin-9-yl)-3,4-dihydroxyoxolan-2-yl]methyl}(methyl)sulfanylium)butanoate] | 47.2 µM and 19.1 µM and 10.7 µM and 5.8 µM | 6.1 µM | 8.2 µM | 11.4 µM | 16.6 µM | 26.7 µM |  |  | 
Nc1ncnc2c1ncn2[C@@H]1O[C@H](C[C@@H](N)CC[C@H](N)C(=O)O)[C@@H](O)[C@H]1O [Sinefungin] |  |  |  |  |  |  | 33.8 µM | 91.5 µM | 
Nc1c2c(nc3ccccc13)CCCC2 |  |  |  |  |  |  | 23400 µM | 3500 µM | 
Nc1ncnc2c1ncn2[C@H]1O[C@@H](CSCC[C@@H](N)C(=O)O)[C@H](O)[C@@H]1O [AdoCys] | 2.9 µM and 2.2 µM and 1.3 µM and 0.9 µM | 0.7 µM | 0.8 µM | 1.1 µM | 1.6 µM | 2.5 µM |  |  | Kd ([4]; 4 °C): 8.6 µM and 6 µM and 9.3 µM and 6.1 µM; Kd ([4]; 5 °C): 2 µM; Kd ([4]; 10 °C): 2.5 µM; Kd ([4]; 15 °C): 3 µM; Kd ([4]; 20 °C): 4.2 µM; Kd ([4]; 25 °C): 5.4 µM
CCCCCCCCCCCCCCCCOP(=O)([O-])OCC[N+](C)(C)C [n-hexadecylphosphocholine] |  |  |  |  |  |  | 125 µM | 12.5 µM | 
CCN(CC)Cc1cc(Nc2ccnc3cc(Cl)ccc23)ccc1O [Amodiaquin] |  |  |  |  |  |  | 3400 µM | 3100 µM | 
